Series [1] relates to Zika virus. The series can be described thus: Antiviral activity against Zika virus PLCal_ZV infected in human Neural progenitor cells. The series is classed as functional, organism-based.
Series [2] deals with Zika virus. The series can be described thus: Antiviral activity against Zika virus PLCal_ZV infected in African green monkey Vero cells assessed as reduction in viral titer after 1 hr by plaque assay. In kind it is functional, organism-based.
In series [3] the target is T1, Nonstructural protein 3 (Zika virus, UniProt A0A024AXB9). The series can be described thus: Inhibition of Zika virus NS2B (1421 to 1469 residues) - NS3 (1503 to 1688 residues) expressed in Escherichia coli BL21(DE3) cells using Dabcyl-KTSAVLQSGFRKME-Edans as substrate after 11 mins by FRET assay.
The nature of series [4]: Cytotoxicity against African green monkey Vero cells by MTT assay. The settings on record: chlorocebus sabaeus. The series is classed as cell-based. (In general: Formazan colour is commonly taken as a measure of viable cells.)
Series [5] in a line: Cytotoxicity against HEK293 cells. In kind it is cell-based. The settings on record: human.
Series [6] can be described thus: Cytotoxicity against human SNB19 cells. The settings on record: SNB-19 cells. The series is classed as cell-based.
Series [7] is described as follows: Cytotoxicity against BHK21 cells after 24 to 48 hrs by CCK8 assay. In kind it is cell-based, Mesocricetus auratus. The settings on record: hamster, BHK-21 cells.
The test system of series [8] is Zika virus. The series can be described thus: Antiviral activity against Zika virus MR766 infected in African green monkey Vero cells by plaque assay. In kind it is functional, organism-based.
The target of series [9] is T1, Nonstructural protein 3. Description: Inhibition of Zika virus Asian/8375 NS2B (48 to 100 residues)-NS3 (14 to 185 residues) expressed in Escherichia coli BL21 (DE3) Star cells preincubated for 30 mins followed by Bz-nKRR-AMC substrate addition.
Series [10] is described as follows: Cytotoxicity against human HuH7 cells by MTT assay. The series is classed as cell-based. The settings on record: Huh-7 cells.
Series [11] can be described thus: Cytotoxicity against African green monkey Vero cells. The settings on record: chlorocebus sabaeus. In kind it is cell-based.
Series [12] addresses T2, NS5 (Zika virus, UniProt A0A143MHK7). Description: Inhibition of Zika virus MTase (4 to 278 residues) expressed in Escherichia coli T7 using GpppAC4 as substrate in presence of [3H]SAM incubated for 30 mins by liquid scintillation counter method.
Series [13] has as its target T2, NS5. Description: Inhibition of Zika virus MTase (4 to 278 residues) expressed in Escherichia coli T7 using A27 RNA as substrate in presence of [3H]SAM incubated for 30 mins by liquid scintillation counter method.
Series [14] in a line: Cytotoxicity against human Neural progenitor cells. In kind it is cell-based.
Series [15] can be described thus: Cytotoxicity against African green monkey Vero cells by visual method. The series is classed as cell-based. The settings on record: chlorocebus sabaeus.

pEC50, pIC50, pKi: −log10 of the molar value. ≈ marks a conversion by molar mass, not a printed value. A value given as a limit tells only on which side of the number the result lay.

Results on 17 compounds are retold here after ChEMBL document CHEMBL4354808, “Drugs for the Treatment of Zika Virus Infection” (J Med Chem, 2020).

T1 sequence (A0A024AXB9 whole entry, the tested form may be a part): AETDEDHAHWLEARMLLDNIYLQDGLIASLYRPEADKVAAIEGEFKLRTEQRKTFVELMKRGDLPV
T2 sequence (A0A143MHK7 whole entry, the tested form may be a part): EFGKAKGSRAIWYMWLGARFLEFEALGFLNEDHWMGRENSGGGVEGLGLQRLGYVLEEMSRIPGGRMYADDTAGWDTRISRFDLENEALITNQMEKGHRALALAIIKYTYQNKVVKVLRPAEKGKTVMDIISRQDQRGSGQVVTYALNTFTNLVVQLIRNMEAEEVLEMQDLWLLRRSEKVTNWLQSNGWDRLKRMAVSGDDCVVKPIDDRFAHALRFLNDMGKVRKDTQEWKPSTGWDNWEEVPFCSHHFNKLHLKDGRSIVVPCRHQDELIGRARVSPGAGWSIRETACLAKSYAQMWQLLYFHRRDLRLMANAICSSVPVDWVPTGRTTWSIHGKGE

By pEC50 is commonly meant the EC50 on a negative log10 scale, so that one unit is a factor of ten. With `CCN(CC)Cc1cc(Nc2ccnc3cc(Cl)ccc23)ccc1O` [AMODIAQUINE], the negative logarithm of the EC50 (pEC50) in series [1] and in series [2] was 5.36 to 5.55 in each case.

As usually defined, the pIC50 is −log10 of the IC50, conventionally taken in molar units. As to `O=c1c(O[C@@H]2O[C@H](CO)[C@@H](O)[C@H](O)[C@H]2O)c(-c2ccc(O)cc2)oc2cc(O)cc(O)c12` [ASTRAGALIN], the pIC50 in series [3] is 3.95.

Broadly, the CC50 is the concentration that lowers cell viability or growth by half. `CC(C)C[C@H]1C(=O)N2CCC[C@H]2[C@]2(O)O[C@](NC(=O)[C@@H]3C=C4c5cccc6[nH]c(Br)c(c56)C[C@H]4N(C)C3)(C(C)C)C(=O)N12` [BROMOCRIPTINE] had a 50% cytotoxic concentration (CC50) in series [4] greater than 40 µM.

Consider `CC[C@H]1CN2CCc3cc(OC)c(OC)cc3[C@@H]2C[C@@H]1C[C@H]1NCCc2cc(OC)c(OC)cc21` [EMETINE], for which the values for the CC50 in [5] and in series [6] were 0.18 µM and 0.086 µM, respectively.

Consider `O=C(O[C@@H]1Cc2c(O)cc(O)cc2O[C@@H]1c1ccc(O)c(O)c1)c1cc(O)c(O)c(O)c1` [EPICATECHIN GALLATE], for which the pIC50 in series [3] was 4.05.

With `O=C(O[C@@H]1Cc2c(O)cc(O)cc2O[C@@H]1c1cc(O)c(O)c(O)c1)c1cc(O)c(O)c(O)c1` [EPIGALOCATECHIN GALLATE], the negative logarithm of the IC50 (pIC50) in [3] was 4.06.

`O=C(O[C@@H]1Cc2c(O)cc(O)cc2O[C@H]1c1cc(O)c(O)c(O)c1)c1cc(O)c(O)c(O)c1` [GALLOCATECHIN GALLATE] showed a negative-log IC50 (pIC50) in series [3] of 4.00.

`CC(C)(C)NCc1ccc(Nc2ccnc3cc(Cl)ccc23)cc1O` [GSK-369796] gave a CC50 in series [7] of 98 µM. This compound gave a pEC50 in series [8] of 5.59.

For `O=c1cc(-c2ccc(O)c(O)c2)oc2cc(O)cc(O)c12` [LUTEOLIN], the pIC50 in series [3] is 4.28.

What is called pKi is −log10 of the Ki, conventionally taken in molar units. Regarding `O=c1c(O)c(-c2cc(O)c(O)c(O)c2)oc2cc(O)cc(O)c12` [MYRICETIN], in series [9], the negative-log IC50 (pIC50) was 5.89 and the negative logarithm of the Ki (pKi) is 6.10. The compound further gave a negative-log IC50 (pIC50) in series [3] of 4.66.

In the case of `CO[C@@H]1[C@@H](OC(N)=O)[C@@H](O)[C@H](Oc2ccc3c(O)c(NC(=O)c4ccc(O)c(CC=C(C)C)c4)c(=O)oc3c2C)OC1(C)C` [NOVOBIOCIN], the CC50 in [10] is 1100 mg/L (≈ 1800 µM); in series [4], 850 mg/L.

Turning to `CCN(CC)CCCC(C)Nc1c2ccc(Cl)cc2nc2ccc(OC)cc12` (stereo unspecified) [QUINACRINE], in series [7], half-maximal cytotoxicity (CC50) was put at 18.6 µM. The pEC50 in series [8] was 5.64.

`NC(=O)c1ncn([C@@H]2O[C@H](CO)[C@@H](O)[C@H]2O)n1` [RIBAVIRIN]: in series [11], the CC50 was greater than 100 µM.

Consider `C[C@@H]1O[C@@H](OC[C@H]2O[C@@H](Oc3c(-c4ccc(O)c(O)c4)oc4cc(O)cc(O)c4c3=O)[C@H](O)[C@@H](O)[C@@H]2O)[C@H](O)[C@H](O)[C@H]1O` [RUTIN], for which the negative logarithm of the IC50 (pIC50) in [3] was 3.98.

`Nc1ncnc2c1ncn2[C@@H]1O[C@H](C[C@@H](N)CC[C@H](N)C(=O)O)[C@@H](O)[C@H]1O` [SINEFUNGIN]: the pIC50 in [12] is 5.93; in series [13] it was 5.79.

Turning to `CC(C)OC(=O)[C@H](C)N[P@](=O)(OC[C@H]1O[C@@H](n2ccc(=O)[nH]c2=O)[C@](C)(F)[C@@H]1O)Oc1ccccc1` [SOFOSBUVIR], the CC50 in series [11] and in [14] was 360 to 512 µM throughout.

Take `Nc1ncnc2c1ccn2[C@@H]1O[C@H](CO)[C@@H](O)[C@H]1O` [TUBERCIDIN]: the CC50 in series [15] is greater than 357 µM.
